{"source": "paper PMC4450297", "about": "“Screening Active Compounds from Garcinia Species Native to China Reveals Novel Compounds Targeting the STAT/JAK Signaling Pathway” (BioMed Research International, 2015)", "data": [{"tested_on": "CCF-STTG1", "experiment": "Cell panel screen (CellTiter-Glo)", "assay_type": "cell-based, human", "conditions": "CCF-STTG1 (Brain), 20 micromolar, 72 hrs", "method": "(§1) All cells were obtained from the cell bank of the American Type Culture Collection (ATCC) and cultured in the supplier's recommended media supplemented with 10% FBS. The cell panel screen was measured using the CellTiter-Glo assay (Promega, Madison, WI) following a standard protocol. Briefly, cancer cells were seeded in 96-well plates and cultured overnight at 37°C with or without 5% CO2 in an incubator. Each compound was dissolved with limited DMSO and diluted to a certain concentration with culture medium and then added to the corresponding well of the cell plate. The final concentration of compound was 20 μM. The control cells (without treatment) received the same amount of DMSO and were incubated under the same conditions. After 72 h cultivation, 100 μL of the CellTiter-Glo reagent was added directly to each well for 10-minute incubation. The plate was then read on a FlexStation 3 microplate luminometer (Molecular Devices, USA) to monitor the luminescence signal generated by the luciferase-catalyzed reaction of luciferin and ATP. The percent of growth inhibition was calculated using the following formula: (untreated cells − treated cells)/(untreated cells − background without cells) ∗ 100.", "units": {"Percent Inhibition": "%"}, "values": [{"smiles": "COc1cc(O)c2c(=O)c3c(CC=C(C)C)cc(O)c(O)c3oc2c1CC=C(C)CCC=C(C)C", "note": "[Go-23]", "Percent Inhibition": 87}]}, {"tested_on": "HCC1395", "experiment": "Cell panel screen (CellTiter-Glo)", "assay_type": "cell-based, human", "conditions": "HCC1395 (Breast), 20 micromolar, 72 hrs", "method": "as §1", "units": {"Percent Inhibition": "%"}, "values": [{"smiles": "COc1cc(O)c2c(=O)c3c(CC=C(C)C)cc(O)c(O)c3oc2c1CC=C(C)CCC=C(C)C", "note": "[Go-23]", "Percent Inhibition": 97}]}, {"tested_on": "Bel-7402", "experiment": "Cell panel screen (CellTiter-Glo)", "assay_type": "cell-based, human", "conditions": "Bel-7402 (Liver), 20 micromolar, 72 hrs", "method": "as §1", "units": {"Percent Inhibition": "%"}, "values": [{"smiles": "COc1cc(O)c2c(=O)c3c(CC=C(C)C)cc(O)c(O)c3oc2c1CC=C(C)CCC=C(C)C", "note": "[Go-23]", "Percent Inhibition": 96}]}, {"tested_on": "NCI-H524", "experiment": "Cell panel screen (CellTiter-Glo)", "assay_type": "cell-based, human", "conditions": "NCI-H524 (Lung), 20 micromolar, 72 hrs", "method": "as §1", "units": {"Percent Inhibition": "%"}, "values": [{"smiles": "COc1cc(O)c2c(=O)c3c(CC=C(C)C)cc(O)c(O)c3oc2c1CC=C(C)CCC=C(C)C", "note": "[Go-23]", "Percent Inhibition": 98}]}, {"tested_on": "BT-549", "experiment": "Cell panel screen (CellTiter-Glo)", "assay_type": "cell-based, human", "conditions": "BT-549 (Breast), 20 micromolar, 72 hrs", "method": "as §1", "units": {"Percent Inhibition": "%"}, "values": [{"smiles": "COc1cc(O)c2c(=O)c3c(CC=C(C)C)cc(O)c(O)c3oc2c1CC=C(C)CCC=C(C)C", "note": "[Go-23]", "Percent Inhibition": 96}]}, {"tested_on": "J82", "experiment": "Cell panel screen (CellTiter-Glo)", "assay_type": "cell-based, human", "conditions": "J82 (Urinary bladder), 20 micromolar, 72 hrs", "method": "as §1", "units": {"Percent Inhibition": "%"}, "values": [{"smiles": "COc1cc(O)c2c(=O)c3c(CC=C(C)C)cc(O)c(O)c3oc2c1CC=C(C)CCC=C(C)C", "note": "[Go-23]", "Percent Inhibition": 97}]}, {"tested_on": "T47D", "experiment": "Cell panel screen (CellTiter-Glo)", "assay_type": "cell-based, human", "conditions": "T47D (Breast), 20 micromolar, 72 hrs", "method": "as §1", "units": {"Percent Inhibition": "%"}, "values": [{"smiles": "COc1cc(O)c2c(=O)c3c(CC=C(C)C)cc(O)c(O)c3oc2c1CC=C(C)CCC=C(C)C", "note": "[Go-23]", "Percent Inhibition": 94}]}, {"tested_on": "CW-2", "experiment": "Cell panel screen (CellTiter-Glo)", "assay_type": "cell-based, human", "conditions": "CW-2 (Colon), 20 micromolar, 72 hrs", "method": "as §1", "units": {"Percent Inhibition": "%"}, "values": [{"smiles": "COc1cc(O)c2c(=O)c3c(CC=C(C)C)cc(O)c(O)c3oc2c1CC=C(C)CCC=C(C)C", "note": "[Go-23]", "Percent Inhibition": 97}]}, {"tested_on": "RL95", "experiment": "Cell panel screen (CellTiter-Glo)", "assay_type": "cell-based, human", "conditions": "RL95 (Uterus), 20 micromolar, 72 hrs", "method": "as §1", "units": {"Percent Inhibition": "%"}, "values": [{"smiles": "COc1cc(O)c2c(=O)c3c(CC=C(C)C)cc(O)c(O)c3oc2c1CC=C(C)CCC=C(C)C", "note": "[Go-23]", "Percent Inhibition": 97}]}, {"tested_on": "NCI-H28", "experiment": "Cell panel screen (CellTiter-Glo)", "assay_type": "cell-based, human", "conditions": "NCI-H28 (Lung), 20 micromolar, 72 hrs", "method": "as §1", "units": {"Percent Inhibition": "%"}, "values": [{"smiles": "COc1cc(O)c2c(=O)c3c(CC=C(C)C)cc(O)c(O)c3oc2c1CC=C(C)CCC=C(C)C", "note": "[Go-23]", "Percent Inhibition": 82}]}, {"tested_on": "A498", "experiment": "Cell panel screen (CellTiter-Glo)", "assay_type": "cell-based, human", "conditions": "A498 (listed under Lung), 20 micromolar, 72 hrs", "method": "as §1", "units": {"Percent Inhibition": "%"}, "values": [{"smiles": "COc1cc(O)c2c(=O)c3c(CC=C(C)C)cc(O)c(O)c3oc2c1CC=C(C)CCC=C(C)C", "note": "[Go-23]", "Percent Inhibition": 94}]}, {"tested_on": "BT-474", "experiment": "Cell panel screen (CellTiter-Glo)", "assay_type": "cell-based, human", "conditions": "BT-474 (Breast), 20 micromolar, 72 hrs", "method": "as §1", "units": {"Percent Inhibition": "%"}, "values": [{"smiles": "COc1cc(O)c2c(=O)c3c(CC=C(C)C)cc(O)c(O)c3oc2c1CC=C(C)CCC=C(C)C", "note": "[Go-23]", "Percent Inhibition": 70}]}, {"tested_on": "NCI-H1623", "experiment": "Cell panel screen (CellTiter-Glo)", "assay_type": "cell-based, human", "conditions": "NCI-H1623 (Lung), 20 micromolar, 72 hrs", "method": "as §1", "units": {"Percent Inhibition": "%"}, "values": [{"smiles": "COc1cc(O)c2c(=O)c3c(CC=C(C)C)cc(O)c(O)c3oc2c1CC=C(C)CCC=C(C)C", "note": "[Go-23]", "Percent Inhibition": 92}]}, {"tested_on": "ZR-75-30", "experiment": "Cell panel screen (CellTiter-Glo)", "assay_type": "cell-based, human", "conditions": "ZR-75-30 (Breast), 20 micromolar, 72 hrs", "method": "as §1", "units": {"Percent Inhibition": "%"}, "values": [{"smiles": "COc1cc(O)c2c(=O)c3c(CC=C(C)C)cc(O)c(O)c3oc2c1CC=C(C)CCC=C(C)C", "note": "[Go-23]", "Percent Inhibition": 95}]}, {"tested_on": "SW13", "experiment": "Cell panel screen (CellTiter-Glo)", "assay_type": "cell-based, human", "conditions": "SW13 (Adrenal gland), 20 micromolar, 72 hrs", "method": "as §1", "units": {"Percent Inhibition": "%"}, "values": [{"smiles": "COc1cc(O)c2c(=O)c3c(CC=C(C)C)cc(O)c(O)c3oc2c1CC=C(C)CCC=C(C)C", "note": "[Go-23]", "Percent Inhibition": 96}]}, {"tested_on": "Panc 03.27", "experiment": "Cell panel screen (CellTiter-Glo)", "assay_type": "cell-based, human", "conditions": "Panc 03.27 (Pancreas), 20 micromolar, 72 hrs", "method": "as §1", "units": {"Percent Inhibition": "%"}, "values": [{"smiles": "COc1cc(O)c2c(=O)c3c(CC=C(C)C)cc(O)c(O)c3oc2c1CC=C(C)CCC=C(C)C", "note": "[Go-23]", "Percent Inhibition": 92}]}, {"tested_on": "MSTO-211-H", "experiment": "Cell panel screen (CellTiter-Glo)", "assay_type": "cell-based, human", "conditions": "MSTO-211-H (Lung), 20 micromolar, 72 hrs", "method": "as §1", "units": {"Percent Inhibition": "%"}, "values": [{"smiles": "COc1cc(O)c2c(=O)c3c(CC=C(C)C)cc(O)c(O)c3oc2c1CC=C(C)CCC=C(C)C", "note": "[Go-23]", "Percent Inhibition": 95}]}, {"tested_on": "TCCSUP", "experiment": "Cell panel screen (CellTiter-Glo)", "assay_type": "cell-based, human", "conditions": "TCCSUP (Urinary bladder), 20 micromolar, 72 hrs", "method": "as §1", "units": {"Percent Inhibition": "%"}, "values": [{"smiles": "COc1cc(O)c2c(=O)c3c(CC=C(C)C)cc(O)c(O)c3oc2c1CC=C(C)CCC=C(C)C", "note": "[Go-23]", "Percent Inhibition": 93}]}]}
